How the values were obtained:
[1] = Home cage locomotor activity (mice); type: in vivo, mouse; details: mice, 0.5, 1, 5, 10 mg/kg i.p., 60 min
Procedure: Locomotor Activity (Mice) Locomotor activity in response to i.p. drug administration was analyzed in a “home cage” activity monitoring system (Med Associates, St. Albans, Vt.), as previously described (Walters and Blendy, 2001; Mackler et al., 2008; Isiegas et al., 2009). Briefly, a novel cage identical to the home cage (28.9 cm×17.8 cm 12 cm) was placed in a photo-beam frame (30 cm×24 cm×8 cm) with sensors arranged in an 8-beam array strip. For dose studies, mice were injected i.p. with saline or drug. Immediately following drug administration, the mice were placed individually in the cages. Beam break data was monitored and recorded for 60 min.

Forced swim test (rats) = type: in vivo, rat; details: three doses, 5 min test, vehicle 81 s
Procedure: Forced Swim Test (FST; Rats) The FST in rats was conducted as previously described (Porsolt et al., 2001). On day 1, rats were placed in a cylindrical chamber (20 cm in diameter, 46 cm deep) filled to a height of 38 cm with room temperature water for 15 min. After the completion of this pre-exposure test, animals were removed from the apparatus, dried with towels and placed under a heat lamp for ˜30 min. […] Animals were treated with these same doses again 20 h and 23 h after the initial dose. Twenty-four h after the pre-exposure, animals were re-introduced to the apparatus and video-recorded for 5 min. Immobility was hand-scored for each video record by a treatment blind observer (P.A.F.) using ANYmaze (Stoelting) to record the data.

opiate receptors = test: [3H]-naloxone binding competition in rat forebrain membranes
[2] = Eyelid ptosis assessment (rats); type: in vivo, rat
Procedure: Ptosis was assessed as previously described (Rubin et al., 1957). Each animal was photographed while gently restrained by hand. Photographs were analyzed by a treatment blind observer (P.A.F.) and assigned a score of 0 (no ptosis, eye completely open), 1 (mild, eye partially closed), 2 (moderate, eye half closed), 3 (severe, eye […] closed), or 4 (complete, eye completely closed).

[3] = Elevated plus maze (rats); type: in vivo, rat
Procedure: Elevated Plus Maze (Rats) Plus maze testing was performed and scored as previously described (Forcelli and Heinrichs, 2008; Forcelli et al., 2012), in a standard grey rat elevated plus maze (50 cm arms, elevated 40 cm off the ground [Stoelting Co., Wood Dale, Ill.]). Testing was conducted under 20 lux red light, 30 min after drug administration. The number of arm entries and time spent in open and closed arms were recorded using ANYmaze (Stoelting Co, Wood Dale, Ill.).

[4] = Open field locomotor activity (rats); type: in vivo, rat; details: 5 mg/kg s.c., 30 min after injection
Procedure: Locomotor Activity (Rats) Locomotor activity was measured 30 minutes after sc injection of test compound. Animals were placed in a Plexiglass enclosure (16″×16″×16″, TruScan Arena, Coulbourn Instruments, Whitehall, Pa.) with 770 lux illumination over the center of the arena. Animals were allowed to explore for 20 min, during which total distance traveled was recorded using ANYmaze software (Stoelting Co., Wood Dale, Ill.), as previously described (Forcelli et al., 2012).

human α3β4 nAChRs = molecular target: T1, human α3β4 nAChRs (Homo sapiens, UniProt P30926+P32297); test: 86Rb+ efflux assay, inhibition of nicotine-stimulated efflux, α3β4 nAChRs; type: cell-based
T1 construct: expressed in transfected cells
Procedure: Stable cell lines and ^86Rb^+ efflux Assay. […] These cell lines were maintained in minimum essential medium (MEM) supplemented with 10% fetal bovine serum, 100 units/mL penicillin G, […] and selective antibiotics at 37° C. with 5% CO2 in a humidified incubator. Tissue culture medium and antibiotics were obtained from Invitrogen Corporation (Carlsbad, Calif.), unless otherwise stated. Fetal bovine serum was obtained from Gemini Bio-Products (Woodland, Calif.).
In brief, cells were plated into 24-well plates coated with poly-D-lysine. […] The cells were then incubated in growth medium (0.5 mL/well) containing ^86Rb^+ (2 μCi/mL) for 4 hour at 37° C. The loading mixture was then aspirated, and the cells were washed four times with 1 mL buffer (15 mM HEPES, 140 mM NaCl, 2 mM KCl, 1 mM MgSO4, 1.8 mM CaCl2), 11 mM Glucose, pH 7.4). One mL of buffer with or without compounds to be tested was then added to each well. After incubation for 2 min, the assay buffer was collected for measurements of ^86Rb^+ released from the cells. Cells were then lysed by adding 1 mL of 100 mM NaOH to each well, and the lysate was collected for determination of the amount of ^86Rb^+ that was in the cells at the end of the efflux assay. Radioactivity of assay samples and lysates was measured by liquid scintillation counting. Total loading (cpm) was calculated as the sum of the assay sample and the lysate of each well, and the amount of ^86Rb^+ efflux was expressed as a percentage of ^86Rb^+ loaded. Stimulated ^86Rb^+ efflux was defined as the difference between efflux in the presence and absence of nicotine. […] IC50 values were determined by nonlinear least-squares regression analyses (GraphPad. San Diego, Calif.).

Forced swim test (mice) = type: in vivo, mouse; details: 6 min test
Procedure: Forced Swim Test (FST; Mice) The FST in mice was conducted as previously described [11]. Briefly, 10 min following i.p. injection of saline, EDDP or EMDP, mice were placed in Plexiglas cylinders filled with water (25° C.) for 6 min while being videotaped. The forced swim score for the entire 6 min test was assessed using the Cleversystems videotracking system (CleverSys) and confirmed with visual scoring by a trained observer. A mouse was judged to be immobile when making only those movements necessary to keep its head above water.

Marble burying (mice) = type: in vivo, mouse; details: 15 min test, vehicle mean 11 of 20
Procedure: Marble Burying (Mice) After a 1 h period of acclimation to the testing room, the mice (n=6-10 per group) were injected i.p. with saline, EDDP, EMDP, or CDP at the doses indicated. Ten minutes later, the mice were placed individually in small cages (26×20×14 cm), in which twenty marbles had been equally distributed on top of mouse bedding (5-cm deep), and a wire lid was placed on top of the cage. Mice were left undisturbed for 15 min, after which time the number of buried marbles (i.e., those covered by bedding three-quarters or more) was counted.

rat α3β4 nAChR channels = rat α3β4 nAChR channels (Rattus norvegicus, UniProt P04757+P12392); details: 2001, cited from earlier work
Sequence of rat α3β4 nAChR channels (P04757 26-499): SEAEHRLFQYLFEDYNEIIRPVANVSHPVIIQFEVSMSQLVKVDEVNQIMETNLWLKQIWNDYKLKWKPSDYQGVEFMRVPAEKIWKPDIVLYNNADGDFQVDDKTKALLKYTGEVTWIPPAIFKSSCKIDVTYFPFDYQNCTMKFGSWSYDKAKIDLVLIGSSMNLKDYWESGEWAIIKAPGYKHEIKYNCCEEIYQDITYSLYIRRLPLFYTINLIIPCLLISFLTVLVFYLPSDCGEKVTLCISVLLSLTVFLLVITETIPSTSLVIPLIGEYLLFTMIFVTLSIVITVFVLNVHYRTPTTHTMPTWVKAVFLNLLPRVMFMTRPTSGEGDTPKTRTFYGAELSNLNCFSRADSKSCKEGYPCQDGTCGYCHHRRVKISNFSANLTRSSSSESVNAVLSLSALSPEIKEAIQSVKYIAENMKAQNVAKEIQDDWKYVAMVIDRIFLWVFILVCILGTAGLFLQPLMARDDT
Sequence of rat α3β4 nAChR channels (P12392 21-495): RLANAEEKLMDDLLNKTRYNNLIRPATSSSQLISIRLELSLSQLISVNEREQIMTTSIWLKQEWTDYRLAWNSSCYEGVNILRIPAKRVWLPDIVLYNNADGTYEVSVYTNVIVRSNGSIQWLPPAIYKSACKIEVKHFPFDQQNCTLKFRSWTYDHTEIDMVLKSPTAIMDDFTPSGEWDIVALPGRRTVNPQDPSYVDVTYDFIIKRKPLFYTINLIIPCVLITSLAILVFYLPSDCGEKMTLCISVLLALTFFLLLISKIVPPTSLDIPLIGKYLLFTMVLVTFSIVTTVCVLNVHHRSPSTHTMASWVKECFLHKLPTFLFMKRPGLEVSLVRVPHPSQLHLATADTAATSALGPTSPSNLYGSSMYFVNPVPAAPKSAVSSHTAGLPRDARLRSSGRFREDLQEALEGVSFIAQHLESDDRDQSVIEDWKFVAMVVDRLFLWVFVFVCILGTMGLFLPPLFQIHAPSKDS

T1 sequence (P32297 32-505): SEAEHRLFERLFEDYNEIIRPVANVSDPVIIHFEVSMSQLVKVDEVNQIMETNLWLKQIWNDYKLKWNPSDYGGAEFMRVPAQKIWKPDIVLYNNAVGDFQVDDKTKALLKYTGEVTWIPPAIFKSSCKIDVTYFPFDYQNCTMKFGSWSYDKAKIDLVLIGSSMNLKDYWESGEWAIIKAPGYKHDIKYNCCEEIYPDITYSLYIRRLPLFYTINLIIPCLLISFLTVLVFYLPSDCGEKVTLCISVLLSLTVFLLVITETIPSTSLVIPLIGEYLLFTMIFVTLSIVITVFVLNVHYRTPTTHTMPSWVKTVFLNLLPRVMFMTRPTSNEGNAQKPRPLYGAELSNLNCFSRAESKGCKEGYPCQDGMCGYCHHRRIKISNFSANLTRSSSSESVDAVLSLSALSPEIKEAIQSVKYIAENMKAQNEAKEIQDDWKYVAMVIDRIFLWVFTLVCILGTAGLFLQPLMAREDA
T1 sequence (P30926 22-498): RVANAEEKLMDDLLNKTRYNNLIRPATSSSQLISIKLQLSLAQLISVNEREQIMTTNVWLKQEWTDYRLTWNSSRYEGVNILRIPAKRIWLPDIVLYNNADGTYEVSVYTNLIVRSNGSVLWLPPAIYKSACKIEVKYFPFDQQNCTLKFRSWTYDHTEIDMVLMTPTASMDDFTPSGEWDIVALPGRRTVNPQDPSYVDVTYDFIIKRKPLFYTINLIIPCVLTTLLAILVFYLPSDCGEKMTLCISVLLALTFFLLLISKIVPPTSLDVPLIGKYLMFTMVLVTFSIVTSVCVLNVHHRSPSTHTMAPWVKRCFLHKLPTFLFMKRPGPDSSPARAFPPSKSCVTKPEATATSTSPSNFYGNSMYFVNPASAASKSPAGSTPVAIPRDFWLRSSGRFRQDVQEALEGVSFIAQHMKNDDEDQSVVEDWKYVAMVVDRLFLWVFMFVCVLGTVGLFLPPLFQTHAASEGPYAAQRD

CCC1=NC(C)CC1(c1ccccc1)c1ccccc1 (racemic) [EMDP, 2-ethyl-5-methyl-3,3-diphenyl-1-pyrroline]
overall home cage locomotor activity [1]: did not significantly affect | immobile time in forced swim test vs vehicle (Forced swim test (rats); 10 mg/kg s.c.): reduced immobile time | immobile time in forced swim test vs vehicle (Forced swim test (rats); 20 mg/kg s.c.): reduced immobile time | fraction of [3H]-naloxone binding sites competed for (opiate receptors; at a concentration of 100 μM): 60% | apparent affinity, fold lower than that of methadone (opiate receptors; rat forebrain [3H]-naloxone binding): ~1900 fold | Ki (opiate receptors; rat forebrain membranes, 2 nM [3H]-naloxone, single-site model): 21 µM | eyelid ptosis quantified over 3 h ([2]; 20 mg/kg): ptosis was not apparent at any time | ptosis observed during forced swim tests ([2]; 10 and 20 mg/kg): did not produce ptosis | mean duration in the open arms of the elevated plus maze ([3]; s.c., dose not given, 30 min after drug, vehicle 104 s): 143 s | percentage of entries made into the open arms of the plus maze ([3]; vs vehicle): the groups did not differ | latency to first entry in the open arms ([3]; vs vehicle (data not shown)): did not differ as a function of treatment group | open field locomotor activity [4]: neither EDDP nor EMDP significantly altered | potency relative to mecamylamine in blocking human α3β4 nAChRs (human α3β4 nAChRs): half as potent as mecamylamine | duration of immobility in forced swim test vs vehicle (Forced swim test (mice); 5 mg/kg i.p.): did not affect immobility time | duration of immobility in forced swim test vs vehicle (Forced swim test (mice); 10 mg/kg i.p.): significantly reduced | number of marbles buried vs vehicle (Marble burying (mice); 5 mg/kg i.p.): buried significantly fewer marbles | number of marbles buried vs vehicle (Marble burying (mice); 10 mg/kg i.p.): buried significantly fewer marbles | potency relative to mecamylamine in blocking rat α3β4 nAChRs (rat α3β4 nAChR channels; Xiao et al): one-sixth as potent | block of rat α3β4 nAChR channels (rat α3β4 nAChR channels; Xiao et al.): potently block
